Laboratory results from patent US10137101B2, “Alkylamido compounds and uses thereof” (Nogra Pharma Limited, priority 2009, dated 2018).

Assays:
[1] = system: TNF-alpha; assay: Inhibition of TNF-alpha mRNA induction by H2O2 in keratinocytes (Real time RT-PCR); type: cell-based, human; conditions: H2O2 300 μM, 6 h, FIG. 6
Experimental: Analysis of the inhibition of compound A of the mRNA induction of the proinflammatory cytokine TNF-alpha by H2O2 was carried out by Real time RT-PCR. The keratinocytes were plated in dishes of 6 cm/Ø. At 80% confluence, the cells were treated with H2O2 (300 μM) in presence of Compound A at the three concentrations (0.01-0.1-0.5 mM) for 6 h. At the end of the treatment, the cells were lysed in a lysis buffer and subjected to isolation and subsequent retrotranscription of the RNA. […] (FIG. 6)

[2] = system: human primary keratinocytes; assay: MTT test on human primary keratinocytes; type: cell-based; conditions: 0.1-1-2 mM, 24 and 48 h; FIG. 5
Experimental: To assess the possible toxic or cytostatic effect of the substances under study, a spectrophotometric test (MTT) was carried out. The human primary keratinocytes, isolated from skin biopsies, were plated in wells of a 24-well plate in suitable medium with addition of antibiotics, calcium, and specific growth factors. At around 70% confluence, the cells were exposed to the presence of Compound A, at various concentrations (0.1-1-2 mM), for 24 and 48 h in suitable medium with addition of antibiotics, calcium, but no growth factors. This culture condition was done for all the subsequent experiments. At the end of the treatment, the MTT test was done.

[3] = system: Colitis in C57bI6 mice; assay: Anti-murine colitis model (TNBS); type: in vivo
Experimental: Colitis in C57bI6 mice is induced by administering TNBS (150 mg/kg) by oral gavage on day −3. Stool samples were taken 8 hours after administration. At day 0-5, N-acetylated E2 (30 mM) was administrated by oral gavage. On day 5, mice were analyzed to obtain a mortality macroscopic score (Wallace, Gastroenterology 96: 29-36, 1989).

[4] = system: IL-6; assay: Inhibition of IL-6 protein induction by LPS in keratinocytes (ELISA); type: cell-based, human; conditions: LPS 10 μg/ml, 24 h; 0.01-0.1-0.5 mM; FIG. 9
Experimental: Analysis of the inhibition by Compound A of the protein induction of IL-6 by LPS (lipopolysaccharide) was done with the ELISA kit. The keratinocytes were plated in wells of a 24-well plate. At 80% confluence, the cells were treated with LPS (10 μg/ml) in presence of compound A at the three concentrations (0.01-0.1-0.5 mM) for 24 h. At the end of the treatment, the supernatant was decanted, centrifuged so as to remove any cell detritus, and kept at −80° C. until the time of the analysis. The quantity of IL-6 present in the supernatant was normalized by the protein concentration of the sample itself.

[5] = system: sebocytes; assay: Sebogenesis induced by LA and TST, fatty acids and squalene by GC-MS; type: cell-based, human; conditions: compound 1 mM
Experimental: In order to evaluate in greater detail the inhibition by Compound A of sebogenesis induced by LA and TST, assays were performed on the lipid extract of the sebocytes using gas chromatography coupled with mass spectrometry (GC-MS). The sebocytes were treated by the scheme described for the Nile Red assay. At the end of the treatment, the cells were removed and then the lipid extraction was done by using organic solvents. One part of the extract was used to analyze the fatty acid composition, while the other part was used for the determination of the quantity of squalene, a lipid characteristic of sebum. […] (FIG. 12B)

[6] = system: IL-6; assay: Inhibition of IL-6 mRNA induction by IFN-γ in keratinocytes (Real time RT-PCR); type: cell-based, human; conditions: IFN-γ 30 ng/ml, 6 h; 0.01-0.1-0.5 mM; FIG. 7
Experimental: Analysis of the inhibition by compound A of the mRNA induction of the proinflammatory cytokine IL-6 by IFN-γ was done through Real time RT-PCR. The keratinocytes were plated in dishes of 6 cm/Ø.
At 80% confluence, the cells were treated with IFN-γ (30 ng/ml) in presence of compound A (N-Acetylged) at the three concentrations (0.01-0.1-0.5 mM) for 6 h.

[7] = system: sebocytes; assay: Sebogenesis induced by linoleic acid and testosterone, Nile Red Assay; type: cell-based, human; conditions: LA 10^-4M, TST 20 nM, compound 1 mM
Experimental: Analysis of the inhibition by (compound A) of sebogenesis induced by treatment with linoleic acid (LA) and with testosterone (TST) was evaluated by spectrofluorimetry, using Nile Red as selective marker of intracellular lipids (Nile Red Assay). The sebocytes were plated in wells of a 24-well plate. Next day, they were deprived of serum (2%) and after 24 h they were stimulated, for another 24 h, with LA (10^-4M), TST (20 nM) in presence or in absence of A (1 mM). At the end of the treatment, the sebocytes were stained with Nile Red. The quantitative analysis was done by spectrofluorimetry, which made it possible to distinguish between neutral lipids and polar lipids based on the different wavelength of excitation and emission. […] (FIG. 11).
Analysis of the inhibition by compound A of sebogenesis induced by treatment with linoleic acid (LA) and with testosterone (TST) was evaluated by spectrofluorimetry, using Nile Red as selective marker of intracellular lipids (Nile Red Assay). The sebocytes were plated in wells of a 24-well plate. […] The quantitative analysis was done by spectrofluorimetry, which made it possible to distinguish between neutral lipids and polar lipids based on the different wavelength of excitation and emission.

[8] = system: sebocytes; assay: MTT test on human sebocytes; type: cell-based; conditions: 0.1-0.5-1-2 mM, 24 and 48 h; FIG. 10
Experimental: To assess the possible toxic or cytostatic effect of the substances under study, a spectrophotometric test (MTT) was carried out. The sebocytes were plated in wells of a 24-well plate in suitable medium with addition of antibiotics, calcium and EGF. At roughly 70% confluence, the cells were exposed to the presence of compound A, in various concentrations (0.1-0.5-1-2 mM), for 24 and 48 h. At the end of the treatment, the MTT test was performed. […] (FIG. 10)

## CO[C@H](Cc1ccc(NC(C)=O)cc1)C(=O)O [Compound A, N-acetyl-(R)-(−)-3-(4-aminophenyl)-2-methoxypropionic acid]
[1]; higher dose (0.5 mM), effect similar to troglitazone
  inhibition of expression of mRNA of TNF-α induced by H2O2, higher dose: complete inhibition
[1]; two higher doses (0.1 mM; 0.5 mM)
  inhibition of expression of mRNA of TNF-α induced by H2O2: able to inhibit
[2]
  cellular vitality (MTT): did not show any effect on cellular vitality
[3]; TNBS 150 mg/kg oral gavage day -3, N-acetylated E2 30 mM oral gavage day 0-5, versus TNBS alone, FIG. 1
  % mortality: comparable
[3]; TNBS + N-acetyl E2 30 mM oral gavage versus TNBS alone, FIG. 3
  MPO (myleoperoxidase) activity: decreased
[3]; TNBS + N-acetyl E2 30 mM oral gavage versus TNBS alone, FIG. 4
  colonic inflammation (Ameho score): colonic inflammation had decreased
[3]; TNBS + N-acetyl E2 30 mM oral gavage versus TNBS alone, day 5, FIG. 2
  level of colonic lesions (Wallace macroscopic score): significantly less
[4]
  inhibition of protein expression of IL-6 induced by LPS: inhibit, in dose-dependent manner
[5]; FIG. 12A
  fatty acid assay of lipid extract (lipidogenic stimulus): reduced
[5]; FIG. 12B
  squalene analysis of lipid extract: confirmed
[6]
  inhibition of mRNA expression of IL-6 induced by IFN-γ: inhibit the expression of the inflammatory cytokine induced by presence of IFN-γ which does not appear to be dose-dependent
[7]; 24 h, FIG. 11, FIG. 13
  inhibition of sebogenesis (intracellular lipids, Nile Red): able to reduce the lipidogenic stimulus
[7]; FIG. 13
  influence of times of treatment on inhibition of sebogenesis (Nile Red): No differences were observed
[8]
  cell vitality (MTT): no effects on cell vitality
